Laboratory results published in publication PMC8308925 (Pharmaceuticals, 2021).
Values belong to the compound of their own block, whether it stands above or below them.

Legend:
UGT1A1 = target: T1, UGT1A1 (Homo sapiens, UniProt P22309); test: biochemical
T1 sequence (P22309 26-533): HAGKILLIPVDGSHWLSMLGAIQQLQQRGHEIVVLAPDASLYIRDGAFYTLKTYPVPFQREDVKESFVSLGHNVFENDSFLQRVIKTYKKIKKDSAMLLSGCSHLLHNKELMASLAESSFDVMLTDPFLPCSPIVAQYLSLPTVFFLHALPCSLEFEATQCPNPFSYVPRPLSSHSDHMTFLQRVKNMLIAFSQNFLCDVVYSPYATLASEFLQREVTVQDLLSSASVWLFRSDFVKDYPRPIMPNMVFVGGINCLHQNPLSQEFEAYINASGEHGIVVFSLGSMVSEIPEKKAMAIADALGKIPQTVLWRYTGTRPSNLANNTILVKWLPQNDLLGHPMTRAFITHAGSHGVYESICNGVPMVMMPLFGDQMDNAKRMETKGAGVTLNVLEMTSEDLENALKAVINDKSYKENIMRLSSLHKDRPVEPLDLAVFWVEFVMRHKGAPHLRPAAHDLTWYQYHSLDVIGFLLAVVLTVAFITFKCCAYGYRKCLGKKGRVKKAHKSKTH

UGT2B7 = target: T2, UGT2B7 (Homo sapiens, UniProt P16662); test: biochemical
T2 sequence (P16662 24-529): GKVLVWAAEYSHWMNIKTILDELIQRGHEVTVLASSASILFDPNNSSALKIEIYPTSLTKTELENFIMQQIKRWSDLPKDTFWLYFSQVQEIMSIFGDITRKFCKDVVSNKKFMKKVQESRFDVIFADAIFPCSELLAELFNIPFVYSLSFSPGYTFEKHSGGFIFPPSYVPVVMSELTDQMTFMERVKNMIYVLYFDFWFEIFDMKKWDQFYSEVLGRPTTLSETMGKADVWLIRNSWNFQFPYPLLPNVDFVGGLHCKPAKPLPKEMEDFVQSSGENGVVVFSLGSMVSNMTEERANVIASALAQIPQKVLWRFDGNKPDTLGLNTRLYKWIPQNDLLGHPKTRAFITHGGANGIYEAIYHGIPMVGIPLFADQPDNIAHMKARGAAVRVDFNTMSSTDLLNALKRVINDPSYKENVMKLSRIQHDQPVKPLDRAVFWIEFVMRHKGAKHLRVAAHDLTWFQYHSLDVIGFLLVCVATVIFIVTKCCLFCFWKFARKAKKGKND

UGT1A4 = target: T3, UGT1A4 (Homo sapiens, UniProt P22310); test: biochemical
T3 sequence (P22310 29-534): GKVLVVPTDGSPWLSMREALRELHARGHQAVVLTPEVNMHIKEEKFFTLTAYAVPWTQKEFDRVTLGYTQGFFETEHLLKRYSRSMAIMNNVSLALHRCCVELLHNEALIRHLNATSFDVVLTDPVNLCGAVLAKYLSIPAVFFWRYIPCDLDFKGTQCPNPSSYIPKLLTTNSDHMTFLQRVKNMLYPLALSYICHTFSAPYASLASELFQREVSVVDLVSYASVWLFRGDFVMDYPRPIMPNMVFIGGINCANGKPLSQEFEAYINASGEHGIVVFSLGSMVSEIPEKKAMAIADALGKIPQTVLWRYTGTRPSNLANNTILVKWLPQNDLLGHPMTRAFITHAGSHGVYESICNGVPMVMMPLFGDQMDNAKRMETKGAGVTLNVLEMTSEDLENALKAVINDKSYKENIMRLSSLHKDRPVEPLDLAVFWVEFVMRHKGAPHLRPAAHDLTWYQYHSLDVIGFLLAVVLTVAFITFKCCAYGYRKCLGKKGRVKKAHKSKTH

UGT1A9 = target: T4, UGT1A9 (Homo sapiens, UniProt O60656); test: biochemical
T4 sequence (O60656 26-530): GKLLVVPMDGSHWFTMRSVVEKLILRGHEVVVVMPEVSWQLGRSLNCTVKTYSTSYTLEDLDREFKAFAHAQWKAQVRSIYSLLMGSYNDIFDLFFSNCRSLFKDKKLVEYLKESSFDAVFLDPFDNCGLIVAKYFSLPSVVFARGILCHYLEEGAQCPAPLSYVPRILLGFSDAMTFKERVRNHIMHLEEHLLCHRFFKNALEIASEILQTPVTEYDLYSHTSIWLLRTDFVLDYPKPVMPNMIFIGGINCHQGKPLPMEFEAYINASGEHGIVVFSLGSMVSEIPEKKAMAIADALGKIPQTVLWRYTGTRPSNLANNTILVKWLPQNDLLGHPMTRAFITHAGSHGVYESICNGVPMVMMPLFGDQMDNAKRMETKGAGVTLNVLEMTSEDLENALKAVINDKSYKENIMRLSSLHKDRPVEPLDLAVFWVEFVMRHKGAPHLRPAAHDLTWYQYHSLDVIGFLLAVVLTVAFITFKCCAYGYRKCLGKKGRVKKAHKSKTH

MATE2K = MATE2K (Homo sapiens, UniProt Q86VL8); details: 4 µM probe substrate, HEK 293-MATE2K
Experimental: (§1) OCT1-, OCT2-, MATE1-, and MATE2K-overexpressing HEK 293 cells and mock cells. To
(§2) aminohippuric acid for OAT1, 4 µM [14C]Metformin for OCT1, OCT2, MATE1, and
(§3) lein for OATP2B1, 100 µM probenecid for OAT1, 100 µM verapamil for OCT1, 200 µM
(§4) and MATE2K, respectively).
(§5) and –MATE2K and mock cells.

OCT2 = target: T5, OCT2 (Homo sapiens, UniProt O15244); details: 4 µM probe substrate, HEK 293-OCT2
T5 sequence (O15244 1-555): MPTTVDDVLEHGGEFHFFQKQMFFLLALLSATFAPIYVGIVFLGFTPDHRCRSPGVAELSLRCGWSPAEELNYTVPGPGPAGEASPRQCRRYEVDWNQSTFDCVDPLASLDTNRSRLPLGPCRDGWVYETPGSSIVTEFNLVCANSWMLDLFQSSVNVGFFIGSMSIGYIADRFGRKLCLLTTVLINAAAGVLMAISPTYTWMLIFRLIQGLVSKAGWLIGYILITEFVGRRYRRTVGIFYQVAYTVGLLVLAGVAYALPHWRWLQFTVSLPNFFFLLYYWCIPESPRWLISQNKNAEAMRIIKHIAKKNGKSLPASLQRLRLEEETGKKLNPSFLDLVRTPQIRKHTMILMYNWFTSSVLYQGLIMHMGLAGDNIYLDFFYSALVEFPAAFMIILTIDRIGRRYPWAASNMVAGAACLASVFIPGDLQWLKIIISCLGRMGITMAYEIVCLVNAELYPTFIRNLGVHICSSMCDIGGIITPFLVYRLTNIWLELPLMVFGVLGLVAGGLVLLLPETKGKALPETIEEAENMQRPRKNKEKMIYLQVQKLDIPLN
Experimental: as §1, §2, §3, §4, §5

MATE1 = target: T6, MATE1 (Homo sapiens, UniProt Q96FL8); details: 4 µM probe substrate, HEK 293-MATE1
T6 sequence (Q96FL8 1-570): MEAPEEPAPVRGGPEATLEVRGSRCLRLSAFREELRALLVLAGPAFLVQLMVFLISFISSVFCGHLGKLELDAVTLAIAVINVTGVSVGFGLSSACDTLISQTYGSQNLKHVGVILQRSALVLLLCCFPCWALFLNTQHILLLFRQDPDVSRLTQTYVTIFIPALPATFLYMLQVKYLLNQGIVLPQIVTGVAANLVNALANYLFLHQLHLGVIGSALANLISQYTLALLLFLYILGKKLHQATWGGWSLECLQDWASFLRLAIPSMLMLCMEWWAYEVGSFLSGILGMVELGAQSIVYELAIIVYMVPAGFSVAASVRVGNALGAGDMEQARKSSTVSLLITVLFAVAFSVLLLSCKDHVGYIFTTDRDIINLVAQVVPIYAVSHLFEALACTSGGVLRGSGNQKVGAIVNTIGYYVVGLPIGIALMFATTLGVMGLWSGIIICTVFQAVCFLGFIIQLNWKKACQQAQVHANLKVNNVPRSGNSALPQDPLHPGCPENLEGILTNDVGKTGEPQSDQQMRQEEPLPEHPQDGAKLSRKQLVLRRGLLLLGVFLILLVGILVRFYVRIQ
Experimental: as §1, §2, §3, §4, §5

OCT1 = target: T7, OCT1 (Homo sapiens, UniProt O15245); details: 4 µM probe substrate, HEK 293-OCT1
T7 sequence (O15245 1-554): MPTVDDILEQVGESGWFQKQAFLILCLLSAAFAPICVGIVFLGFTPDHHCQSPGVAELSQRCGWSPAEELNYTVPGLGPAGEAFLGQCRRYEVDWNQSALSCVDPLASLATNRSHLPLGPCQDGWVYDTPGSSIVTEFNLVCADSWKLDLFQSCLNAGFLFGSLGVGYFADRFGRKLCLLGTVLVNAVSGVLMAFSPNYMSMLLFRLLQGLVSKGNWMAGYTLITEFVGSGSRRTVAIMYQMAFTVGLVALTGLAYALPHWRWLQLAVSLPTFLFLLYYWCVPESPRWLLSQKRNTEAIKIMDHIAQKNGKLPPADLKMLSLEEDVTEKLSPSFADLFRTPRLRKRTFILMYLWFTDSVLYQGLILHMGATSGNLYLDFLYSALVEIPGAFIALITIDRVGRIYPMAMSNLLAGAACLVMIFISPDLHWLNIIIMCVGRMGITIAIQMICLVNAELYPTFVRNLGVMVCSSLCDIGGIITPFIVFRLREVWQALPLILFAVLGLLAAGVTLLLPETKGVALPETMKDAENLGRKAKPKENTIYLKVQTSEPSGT
Experimental: as §1, §2, §3, §4, §5

ASBT = target: T8, ASBT (Homo sapiens, UniProt Q12908); details: inhibition of ASBT, implemented in DDI model; ref [38]; cited from earlier work
T8 sequence (Q12908 1-348): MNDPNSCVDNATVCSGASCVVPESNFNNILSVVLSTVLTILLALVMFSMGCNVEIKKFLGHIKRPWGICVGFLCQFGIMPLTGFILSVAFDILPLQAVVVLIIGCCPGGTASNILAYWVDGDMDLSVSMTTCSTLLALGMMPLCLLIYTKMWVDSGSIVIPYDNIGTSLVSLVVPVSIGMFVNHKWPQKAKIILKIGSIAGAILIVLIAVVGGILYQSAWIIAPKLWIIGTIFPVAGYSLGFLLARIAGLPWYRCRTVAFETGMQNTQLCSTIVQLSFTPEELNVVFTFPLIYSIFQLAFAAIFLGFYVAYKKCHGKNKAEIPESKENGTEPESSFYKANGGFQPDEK

OAT3 = details: inhibition of OAT3, implemented in DDI model; ref [41]; cited from earlier work

Chain of MATE2K (Q86VL8 1-566 isoform Q86VL8-3): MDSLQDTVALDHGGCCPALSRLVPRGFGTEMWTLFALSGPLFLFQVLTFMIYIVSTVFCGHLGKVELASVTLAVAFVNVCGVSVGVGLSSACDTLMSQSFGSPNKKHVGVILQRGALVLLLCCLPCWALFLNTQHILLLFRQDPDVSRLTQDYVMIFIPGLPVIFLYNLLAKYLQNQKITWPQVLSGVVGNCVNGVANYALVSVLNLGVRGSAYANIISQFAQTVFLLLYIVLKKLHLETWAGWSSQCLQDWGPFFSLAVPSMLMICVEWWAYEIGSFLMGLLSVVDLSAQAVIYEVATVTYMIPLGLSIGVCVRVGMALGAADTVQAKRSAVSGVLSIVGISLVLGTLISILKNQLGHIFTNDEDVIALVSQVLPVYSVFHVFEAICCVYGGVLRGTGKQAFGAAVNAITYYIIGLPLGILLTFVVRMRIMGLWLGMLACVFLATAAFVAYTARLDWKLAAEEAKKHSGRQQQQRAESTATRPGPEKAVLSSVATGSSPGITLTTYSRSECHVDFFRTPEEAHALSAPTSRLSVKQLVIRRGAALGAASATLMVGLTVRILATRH

IC50 (UGT1A1): 290 nM
Compound: COC(=O)N[C@H](C(=O)N[C@@H](Cc1ccccc1)[C@@H](O)CN(Cc1ccc(-c2ccccn2)cc1)NC(=O)[C@@H](NC(=O)OC)C(C)(C)C)C(C)(C)C [Atazanavir]

IC50 (UGT2B7): 27300 nM
Compound: O=C1Nc2ccc(Cl)cc2[C@@](C#CC2CC2)(C(F)(F)F)O1 [Efavirenz]

Compound: C[C@@H]1CC[C@@]2(OC1)O[C@H]1C[C@H]3[C@@H]4CC[C@H]5C[C@@H](O)CC[C@]5(C)[C@H]4CC(=O)[C@]3(C)[C@H]1[C@@H]2C [Hecogenin]
IC50 (UGT1A4): 2100 nM

IC50 (UGT1A9): 280 nM
Compound: O=C(O)c1cccnc1Nc1cccc(C(F)(F)F)c1 [Niflumic acid]

Compound: CN(C)C(N)=NC(=N)N [[14C]Metformin]
Increase of probe substrate uptake rate in transporter-expressing cells compared to mock cells (MATE2K): 4.2 fold
Increase of probe substrate uptake rate in transporter-expressing cells compared to mock cells (OCT2): 8.0 fold
Increase of probe substrate uptake rate in transporter-expressing cells compared to mock cells (MATE1): 18.3 fold
Increase of probe substrate uptake rate in transporter-expressing cells compared to mock cells (OCT1): 4.8 fold

Compound: CCc1ccc(CCOc2ccc(CC3SC(=O)NC3=O)cc2)nc1 (stereo not shown) [pioglitazone]
Ki (ASBT): 54600 nM
Ki (OAT3): 1020 nM
